# Read-outs that look alike come from different tables or passages of the source.
# Experiments:
# [1] = test system: AsPC1 pancreatic cancer cell line
# Description: (§1) Mock-treated cells were cultured with the equivalent volume of PBS alone.
# (§2) Total RNA was isolated from cultured cells using TRIZOL reagent (invitrogen, Carlsbad, Calif.) and purified using RNeasy Mini Kit (Qiagen, Valencia, Calif.). First- and second-stranded cDNA was synthesized from 10 μg of total RNA using 17-dT) primer (Genset Corp., La Jolla, Calif.) and Superscript Choice system (Invitrogen). Labeled cRNA was synthesized from the purified cDNA by in vitro transcription reaction using the BioArray High Yield RNA Transcript Labeling Kit (Enzo Diagnostics, Inc., Farmingdale, N.Y.) at 37° C. for 6 h. The cRNA was fragmented at 94° C. for 35 min. in a fragmentation buffer [40 mM Tris-acetate @ pH 8.1, 100 mM potassium acestate, and 30 mM magnesium acetate]. The fragmented cRNA was then hybridized to the Human Genome U133A chips (Affymetrix, Santa Clara, Calif.) with 18462 unique gene/EST transcripts at 45° C. for 16 h. The washing and staining procedure was performed in the Affymetrix Fluidics Station according to the manufacturer's instructions. The probes were then scanned using a laser scanner, and signal intensity for each transcript (background-subtracted and adjusted for noise) was calculated using Microarray Suite Software 5.0 (Affymetrix).
# (§3) Fold change analysis of signal intensities obtained from oligonucleotide microarrays between the two treatment groups was performed using Data Mining software (Afrymetrix).
# (§4) The global changes in gene expression proxies induced by 5Aza-dC in four pancreatic cancer cell lines (AsPCl, Hs766T, MiaPaCa2, and Panel) were determined using the Afrymetrix U133 oligonucleotide microarrays with 18462 probes sets (transcripts) covering over 13000 full-length sequences of known genes.
# [2] = test system: four pancreatic cancer cell lines (AsPC1, Hs766T, MiaPaCa2, Panc1)
# Description: as §1, §2, §3, §4
structure (smiles),measurement,setting,value
"Nc1ncn([C@H]2C[C@H](O)[C@@H](CO)O2)c(=O)n1 [5Aza-dC, 5 aza 2′ deoxycytidine]",Fold-change after 5Aza-dC treatment,"[1]; ANGPT2, AsPC1",6.15 fold
same,"transcripts with >5-fold increase, share of the 18462 transcripts analyzed",[1]; AsPC1,1.2%
same,transcripts with substantial increase (>5-fold) in signal intensities,"[1]; AsPC1, vs mock-treated",225 transcripts
same,Fold-change after 5Aza-dC treatment,"[1]; BARD1, AsPC1",−1.07 fold
same,Fold-change after 5Aza-dC treatment,"[1]; BNIP3, AsPC1",6.12 fold
same,Fold-change after 5Aza-dC treatment,"[1]; BST2, AsPC1",1.97 fold
same,Fold-change after 5Aza-dC treatment,"[1]; CACNA1G, AsPC1",1.83 fold
same,Fold-change after 5Aza-dC treatment,"[1]; CCNE2, AsPC1",1.48 fold
same,Fold-change after 5Aza-dC treatment,"[1]; CDKN1A (p21), AsPC1",2.21 fold
same,Fold-change after 5Aza-dC treatment,"[1]; CDKN1C, AsPC1",0.6 fold
same,Fold-change after 5Aza-dC treatment,"[1]; CLDN5, AsPC1",22.34 fold
same,Fold-change after 5Aza-dC treatment,"[1]; CSF1, AsPC1",1.12 fold
same,Fold-change after 5Aza-dC treatment,"[1]; DR3, AsPC1",1.47 fold
same,Fold-change after 5Aza-dC treatment,"[1]; FOXE1, AsPC1",3.51 fold
same,Fold-change after 5Aza-dC treatment,"[1]; GAGE1, AsPC1",−0.54 fold
same,Fold-change after 5Aza-dC treatment,"[1]; GAGE4, AsPC1",15.66 fold
same,Fold-change after 5Aza-dC treatment,"[1]; GAGE6, AsPC1",15.59 fold
same,Fold-change after 5Aza-dC treatment,"[1]; GAGE7, AsPC1",14.08 fold
same,Fold-change after 5Aza-dC treatment,"[1]; HOXA1, AsPC1",25.8 fold
same,Fold-change after 5Aza-dC treatment,"[1]; IGF2, AsPC1",0.55 fold
same,Fold-change after 5Aza-dC treatment,"[1]; IL1R1, AsPC1",7.51 fold
same,Fold-change after 5Aza-dC treatment,"[1]; ISG20, AsPC1",−1.12 fold
same,Fold-change after 5Aza-dC treatment,"[1]; JPH3, AsPC1",1.27 fold
same,Fold-change after 5Aza-dC treatment,"[1]; KLK10, AsPC1",1.03 fold
same,Fold-change after 5Aza-dC treatment,"[1]; LDOC1, AsPC1",8.99 fold
same,Fold-change after 5Aza-dC treatment,"[1]; LHX1, AsPC1",5.22 fold
same,Fold-change after 5Aza-dC treatment,"[1]; MAGE1, AsPC1",1.52 fold
same,Fold-change after 5Aza-dC treatment,"[1]; MATN1, AsPC1",−1.44 fold
same,Fold-change after 5Aza-dC treatment,"[1]; NEFH, AsPC1",2.94 fold
same,Fold-change after 5Aza-dC treatment,"[1]; NPTX2, AsPC1",13.97 fold
same,Fold-change after 5Aza-dC treatment,"[1]; PAX6, AsPC1",8.94 fold
same,Fold-change after 5Aza-dC treatment,"[1]; PDYN, AsPC1",1.33 fold
same,Fold-change after 5Aza-dC treatment,"[1]; PLAT, AsPC1",−1.15 fold
same,Fold-change after 5Aza-dC treatment,"[1]; PLEK2, AsPC1",1.37 fold
same,Fold-change after 5Aza-dC treatment,"[1]; SARP2, AsPC1",−1.89 fold
same,Fold-change after 5Aza-dC treatment,"[1]; SMARCA1, AsPC1",7.89 fold
same,Fold-change after 5Aza-dC treatment,"[1]; ST14, AsPC1",−1.21 fold
same,Fold-change after 5Aza-dC treatment,"[1]; TIMP3, AsPC1",11.89 fold
same,Fold-change after 5Aza-dC treatment,"[1]; TJP2, AsPC1",−1.24 fold
same,Fold-change after 5Aza-dC treatment,"[1]; TNF, AsPC1",−1.17 fold
same,Fold-change after 5Aza-dC treatment,"[1]; UCHL1, AsPC1",6.62 fold
same,Fold-change after 5Aza-dC treatment,"[1]; WNT7A, AsPC1",2.7 fold
same,Fold-change after 5Aza-dC treatment,"[1]; XAGE-1, AsPC1",28.59 fold
same,Fold-change after 5Aza-dC treatment,"[1]; granulocytemacrophage colony-stimulating factor (M11734), AsPC1",1.44 fold
same,Fold-change after 5Aza-dC treatment,"[1]; interferon, alpha-inducible protein (NM_022873), AsPC1",4.48 fold
same,Fold-change after 5Aza-dC treatment,"[1]; p53-induced protein (PIGII), AsPC1",−1.22 fold
same,Fold-change after 5Aza-dC treatment,"[1]; reprimo, AsPC1",1.66 fold
same,Fold-change after 5Aza-dC treatment,"[1]; stratifin (14-3-3 sigma), AsPC1",−1.48 fold
same,Fold-change after 5Aza-dC treatment,"[1]; stromal antigen 3 (STAG5), AsPC1",14.06 fold
same,Fold-change after 5Aza-dC treatment,"[1]; testin, AsPC1",−1.23 fold
same,changes in phenotypes during the treatment period,[2],did not result in apparent changes in their phenotypes
same,Induced by 5Aza-dC alone?,[2]; ADM,No
same,Induced by 5Aza-dC alone?,[2]; ANGPT1,No
same,Induced by 5Aza-dC alone?,[2]; AREG,No
same,Induced by 5Aza-dC alone?,[2]; ATF3,No
same,Induced by 5Aza-dC alone?,[2]; BIK,No
same,Induced by 5Aza-dC alone?,[2]; BIK (Table 3),No
same,Induced by 5Aza-dC alone?,[2]; BNIP3,Yes
same,Induced by 5Aza-dC alone?,[2]; BST2,Yes
same,Induced by 5Aza-dC alone?,[2]; CACNA1G,Yes
same,Induced by 5Aza-dC alone?,[2]; CAPN5,No
same,Induced by 5Aza-dC alone?,[2]; CASP5,No
same,Induced by 5Aza-dC alone?,[2]; CCNA1,No
same,Induced by 5Aza-dC alone?,[2]; CDC25A,No
same,Induced by 5Aza-dC alone?,[2]; CDH8,Yes
same,Induced by 5Aza-dC alone?,[2]; CDKN1C,Yes
same,Induced by 5Aza-dC alone?,[2]; CDKN2A (p16),No
same,Induced by 5Aza-dC alone?,[2]; CGR11,No
same,Induced by 5Aza-dC alone?,[2]; CHES1,No
same,Induced by 5Aza-dC alone?,[2]; CHFR,No
same,Induced by 5Aza-dC alone?,[2]; CLDN7,No
same,Induced by 5Aza-dC alone?,[2]; CLDN15,No
same,Induced by 5Aza-dC alone?,[2]; CRIP 1,No
same,Induced by 5Aza-dC alone?,[2]; CRLF1,No
same,Induced by 5Aza-dC alone?,[2]; CSF3,No
same,Induced by 5Aza-dC alone?,[2]; Cdc42 effector protein 2,No
same,Induced by 5Aza-dC alone?,[2]; DAPK2,No
